Legend:
[1] = Second order kinetic constants of the reactions between CC49-TCO constructs and ^177Lu-28; type: physicochemical; conditions: for Second order kinetic constant: new TCOs conjugated to CC49, reaction with ^177Lu-28, procedures of Example 5; for Second order kinetic constant, No Spacer / Second order kinetic constant, PEG10 Spacer: TCO conjugated to CC49, reaction with ^177Lu-28 in PBS, pH 7.4 at 37° C.
Description: Typically, 1 mg CC49 (5 mg/mL solution in PBS) was modified with 0.6 molar (for kinetic measurements) or 10 molar eq. (for in vivo studies) of TCO-NHS constructs in a total volume of 250 μL PBS. The pH was adjusted to 9 with 1 M sodium carbonate buffer. The reactions were carried out under agitation for 30 min at RT in the dark. Subsequently, the TCO-modified mAbs were extensively washed with PBS using Amicon Ultra-15 centrifugal devices. The numbers of TCO groups per antibody were determined with a tetrazine titration, outlined below.
Tetrazine-DOTA 28 was radiolabeled with carrier-added ^177Lu. mAb (25 μg) modified with ca. 0.6 molar eq. TCO was reacted with 3 molar eq. of ^177Lu-28 (0.5 nM). mAb (25 μg) modified with ca. 10 molar eq. TCO was reacted with 15 molar eq. of ^177Lu-28 (2.5 nM). The reactions were carried out in 50 μL PBS pH 7.4 at 37° C. for 10 min. The reaction mixtures were analyzed by SDS-PAGE and phosphor imager and the reaction yields were determined from the radioactivity in the bands corresponding to the mAb. The counts were quantified with AIDA Image Analyzer software (Raytest).
Tetrazine-DOTA 28 was radiolabeled with carrier-added ^177Lu at a specific activity of 3 MBq/μg. ^177Lu-28 (33 nM) was reacted with increasing concentrations of CC49 modified with 1 eq. of TCO (0.33, 1, and 1.67 μM) in 200 μL PBS, pH 7.4 at 37° C. for 5 min. At selected times (15, 30, 45, 60, 90, 120, 180, and 300 sec) a 20 μL sample was withdrawn and quenched with tetrazine 6 (FIG. 5; described in Rossin et al. Angew Chem Int Ed 2010, 49, 3375) (1.5 μL, 5 mg/mL in DMF). Aliquots of each mixture were analyzed by SDS-PAGE and phosphor imager and the cycloaddition yields were determined from the radioactivity in the bands corresponding to the mAb. The counts were quantified with AIDA Image Analyzer software (Raytest).
The newly synthesized TCO constructs were evaluated with respect to their reactivity towards tetrazine 28. The procedures are described in Example 5.

LS174T tumor model [2] = experiment: Biodistribution of ^177Lu-tetrazine 28 in tumor bearing mice pretargeted with CC49-TCO 44b; type: in vivo, Nude female Balb/C mice; conditions: 3 h after injection, 50 h after ^125I-CC49-TCO-44b, two doses of clearing agent
Description: (§1) LS174T tumor model. The human colon cancer cell line LS174T was obtained from the ATCC and maintained in Eagle's minimal essential medium (Sigma) supplemented with 10% heat inactivated fetal calf serum (Gibco), penicillin (100 U/mL), streptomycin (100 μg/mL) and 2 mM Glutamax. Nude female Balb/C mice (20-25 g body weight, Charles River Laboratories) were inoculated subcutaneously with 5×10^6 cells in 100 μL sterile PBS.
Tumor-bearing mice (see Methods; 100 mm^3 tumor size; n=4) were injected with ^125I-CC49 functionalized with 7.5 TCO 44b groups (100 μg/mouse, ca. 0.2 MBq). Thirty and 48 hours post-mAb injection the mice received one dose of clearing agent (galactose-MSA-tetrazine, 160 μg/dose) followed 2 h later by ^177Lu-tetrazine 28 (10 eq. with respect to the mAb, ca. 0.5 MBq). Three hours post-tetrazine injection the mice were anesthetized and sacrificed by cervical dislocation, blood was withdrawn by heart puncture, organs and tissues of interest were harvested and blotted dry. All collected samples were weighed and added with 1 mL PBS. The sample radioactivity was measured in a gamma-counter with a dual-isotope protocol (10-80 keV window for ^125I and 155-380 keV window for ^177Lu) along with standards to determine the percent injected dose per gram tissue (% ID/g).

LS174T tumor model [3] = experiment: Biodistribution experiments in tumor bearing mice pretargeted with CC49-TCO constructs; type: in vivo, Nude female Balb/C mice; conditions: for ^177Lu-tetrazine in Blood / ^177Lu-tetrazine in Bone / ^177Lu-tetrazine in Brain / ^177Lu-tetrazine in Heart / ^177Lu-tetrazine in Kidney / ^177Lu-tetrazine in Liver / ^177Lu-tetrazine in Lung / ^177Lu-tetrazine in Muscle / ^177Lu-tetrazine in Spleen / ^177Lu-tetrazine in Tumor: 3 h after injection
Description: as §1
Dual isotope biodistribution experiments were performed by injecting tumor bearing mice (n=3) intravenously with ^125I-labeled CC49-TCO constructs with and without PEG10 spacer (100 μg/100 μL per mouse, ca. […] 0.8 MBq). Three hours after tetrazine administration, the animals were anesthetized with isoflurane and sacrificed by cervical dislocation. Blood was withdrawn by heart puncture and organs and tissues of interest were harvested, blotted dry and weighed. The radioactivity of the samples was measured in a γ-counter along with standards to determine the % ID/gram. The energy windows were set to 10-80 keV and 100-510 keV for ^125I and ^111In, respectively.

[4] = 1 day pretargeting with CC49-23a
[5] = 4 days pretargeting with CC49-23a

O=C(COC1CC/C=C/CCC1)ON1C(=O)CCC1=O (single isomer, unassigned) [44a, (E-Major)-2,5-dioxopyrrolidin-1-yl 2-(cyclooct-4-en-1-yloxy)acetate]
Second order kinetic constant [1]: 20640 ± 485 M⁻¹ s⁻¹

O=C(COC1CC/C=C/CCC1)ON1C(=O)CCC1=O (single isomer, unassigned) [44b, (E-Minor)-2,5-dioxopyrrolidin-1-yl 2-(cyclooct-4-en-1-yloxy)acetate]
Second order kinetic constant [1]: 134800 ± 997 M⁻¹ s⁻¹

O=C(ON1C(=O)CCC1=O)C(OC1CC/C=C/CCC1)c1ccccc1 (single isomer, unassigned) [46a, (E-Major)-2,5-dioxopyrrolidin-1-yl 2-(cyclooct-4-en-1-yloxy)-2-phenyl acetate]
Second order kinetic constant [1]: 28630 ± 1590 M⁻¹ s⁻¹

O=C(ON1C(=O)CCC1=O)C(OC1CC/C=C/CCC1)c1ccccc1 (single isomer, unassigned) [46b, (E-Minor)-2,5-dioxopyrrolidin-1-yl 2-(cyclooct-4-en-1-yloxy)-2-phenylacetate]
Second order kinetic constant [1]: 163200 ± 2871 M⁻¹ s⁻¹

CC(C)(OC1CC/C=C/CCC1)C(=O)ON1C(=O)CCC1=O (single isomer, unassigned) [49a, (E-Major)-2,5-dioxopyrrolidin-1-yl 2-(cyclooct-4-en-1-yloxy)-2-methylpropanoate]
Second order kinetic constant [1]: 25080 ± 3865 M⁻¹ s⁻¹

CC(C)(OC1CC/C=C/CCC1)C(=O)ON1C(=O)CCC1=O (single isomer, unassigned) [49b, (E-Minor)-2,5-dioxopyrrolidin-1-yl 2-(cyclooct-4-en-1-yloxy)-2-methylpropanoate]
Second order kinetic constant [1]: 148500 ± 12040 M⁻¹ s⁻¹

O=C(ON1C(=O)CCC1=O)c1ccc(OC2CC/C=C/CCC2)cc1 (single isomer, unassigned) [52a, (E-Major)-2,5-dioxopyrrolidin-1-yl 4-(cyclooct-4-en-1-yloxy)benzoate]
Second order kinetic constant [1]: 20930 ± 3735 M⁻¹ s⁻¹

O=C(ON1C(=O)CCC1=O)c1ccc(OC2CC/C=C/CCC2)cc1 (single isomer, unassigned) [52b, (E-Minor)-2,5-dioxopyrrolidin-1-yl 4-(cyclooct-4-en-1-yloxy)benzoate]
Second order kinetic constant [1]: 333300 ± 625 M⁻¹ s⁻¹

O=C(Nc1ccc(C(=O)ON2C(=O)CCC2=O)cc1)OC1CC/C=C/CCC1 (stereo not shown) [14a, (E-major)-2,5-dioxopyrrolidin-1-yl 4-(((cyclooct-4-en-1-yloxy)carbonyl)amino)benzoate]
Second order kinetic constant, No Spacer [1]: (14a) 11350 ± 550 M^−1s^−1

O=C(Nc1ccc(C(=O)ON2C(=O)CCC2=O)cc1)OC1CC/C=C/CCC1 (stereo not shown) [14b, (E-minor)-2,5-dioxopyrrolidin-1-yl 4-(((cyclooct-4-en-1-yloxy)carbonyl)amino)benzoate]
Second order kinetic constant, No Spacer [1]: (14b) 66550 ± 8800 M^−1s^−1

O=C(CCOCCOCCOCCOCCOCCOCCOCCOCCOCCOCCOCCOCCNC(=O)c1ccc(COC2CC/C=C/CCC2)cc1)ON1C(=O)CCC1=O (stereo not shown) [23b, (E-minor)-2,5-Dioxopyrrolidin-1-yl 1-(4-((cyclooct-4-en-1-yloxy)methyl)phenyl)-1-oxo-5,8,11,14,17,20,23,26,29,32,35,38-dodecaoxa-2-azahentetracontan-41-oate]
Second order kinetic constant, PEG10 Spacer [1]: (23b) 156400 ± 3100 M^−1s^−1

O=C(CCOCCOCCOCCOCCOCCOCCOCCOCCOCCOCCOCCOCCNC(=O)c1ccc(NC(=O)OC2CC/C=C/CCC2)cc1)ON1C(=O)CCC1=O (stereo not shown) [27a, (E-major)-2,5-dioxopyrrolidin-1-yl 1-(4-(((cyclooct-4-en-1-yloxy)carbonyl)amino)phenyl)-1-oxo-5,8,11,14,17,20,23,26,29,32,35,38-dodecaoxa-2-azahentetracontan-41-oate]
Second order kinetic constant, PEG10 Spacer [1]: (27a) 11030 ± 250 M^−1s^−1

O=C([O-])CN1CCN(CC(=O)[O-])CCN(CC(=O)NCCOCCOCCOCCOCCOCCOCCOCCOCCOCCOCCOCCNC(=O)CCCC(=O)Nc2ccc(-c3nnc(-c4ccccn4)nn3)nc2)CCN(CC(=O)[O-])CC1.[177Lu+3] [^177Lu-tetrazine 28]
Tumor/Blood ratio, ^177Lu-tetrazine (LS174T tumor model [2]): 304 ± 80
Tumor/Bone ratio, ^177Lu-tetrazine (LS174T tumor model [2]): 142 ± 59
Tumor/Brain ratio, ^177Lu-tetrazine (LS174T tumor model [2]): 1674 ± 243
Tumor/Heart ratio, ^177Lu-tetrazine (LS174T tumor model [2]): 187 ± 20
Tumor/Kidney ratio, ^177Lu-tetrazine (LS174T tumor model [2]): 6 ± 2
Tumor/Liver ratio, ^177Lu-tetrazine (LS174T tumor model [2]): 50 ± 10
Tumor/Lung ratio, ^177Lu-tetrazine (LS174T tumor model [2]): 39 ± 8
Tumor/Muscle ratio, ^177Lu-tetrazine (LS174T tumor model [2]): 328 ± 96
Tumor/Spleen ratio, ^177Lu-tetrazine (LS174T tumor model [2]): 108 ± 22
^177Lu-tetrazine in Blood (LS174T tumor model [2]): 0.03 ± 0.00 % ID/gram
^177Lu-tetrazine in Bone (LS174T tumor model [2]): 0.08 ± 0.04 % ID/gram
^177Lu-tetrazine in Brain (LS174T tumor model [2]): 0.01 ± 0.00 % ID/gram
^177Lu-tetrazine in Heart (LS174T tumor model [2]): 0.05 ± 0.01 % ID/gram
^177Lu-tetrazine in Kidney (LS174T tumor model [2]): 1.50 ± 0.24 % ID/gram
^177Lu-tetrazine in Liver (LS174T tumor model [2]): 0.19 ± 0.02 % ID/gram
^177Lu-tetrazine in Lung (LS174T tumor model [2]): 0.24 ± 0.02 % ID/gram
^177Lu-tetrazine in Muscle (LS174T tumor model [2]): 0.03 ± 0.00 % ID/gram
^177Lu-tetrazine in Spleen (LS174T tumor model [2]): 0.09 ± 0.01 % ID/gram
^177Lu-tetrazine in Tumor (LS174T tumor model [2]): 9.25 ± 2.16 % ID/gram
^177Lu-tetrazine in Blood (LS174T tumor model [3]; [4]): 1.06 ± 0.34 % ID/gram
^177Lu-tetrazine in Bone (LS174T tumor model [3]; [4]): 0.11 ± 0.02 % ID/gram
^177Lu-tetrazine in Brain (LS174T tumor model [3]; [4]): 0.03 ± 0.02 % ID/gram
^177Lu-tetrazine in Heart (LS174T tumor model [3]; [4]): 0.20 ± 0.02 % ID/gram
^177Lu-tetrazine in Kidney (LS174T tumor model [3]; [4]): 1.73 ± 0.31 % ID/gram
^177Lu-tetrazine in Liver (LS174T tumor model [3]; [4]): 0.61 ± 0.15 % ID/gram
^177Lu-tetrazine in Lung (LS174T tumor model [3]; [4]): 0.32 ± 0.03 % ID/gram
^177Lu-tetrazine in Muscle (LS174T tumor model [3]; [4]): 0.06 ± 0.03 % ID/gram
^177Lu-tetrazine in Spleen (LS174T tumor model [3]; [4]): 0.30 ± 0.09 % ID/gram
^177Lu-tetrazine in Tumor (LS174T tumor model [3]; [4]): 3.09 ± 0.01 % ID/gram
^177Lu-tetrazine in Tumor (LS174T tumor model [3]; 1 day pretargeting with CC49-23a, listed as 177Lu-tetrazine): 3.09±0.01 % ID/gram
^177Lu-tetrazine in Blood (LS174T tumor model [3]; [5]): 0.04 ± 0.01 % ID/gram
^177Lu-tetrazine in Bone (LS174T tumor model [3]; [5]): 0.06 ± 0.01 % ID/gram
^177Lu-tetrazine in Brain (LS174T tumor model [3]; [5]): 0.01 ± 0.00 % ID/gram
^177Lu-tetrazine in Heart (LS174T tumor model [3]; [5]): 0.04 ± 0.00 % ID/gram
^177Lu-tetrazine in Kidney (LS174T tumor model [3]; [5]): 1.73 ± 0.22 % ID/gram
^177Lu-tetrazine in Liver (LS174T tumor model [3]; [5]): 0.31 ± 0.03 % ID/gram
^177Lu-tetrazine in Lung (LS174T tumor model [3]; [5]): 0.13 ± 0.05 % ID/gram
^177Lu-tetrazine in Muscle (LS174T tumor model [3]; [5]): 0.02 ± 0.01 % ID/gram
^177Lu-tetrazine in Spleen (LS174T tumor model [3]; [5]): 0.20 ± 0.00 % ID/gram
^177Lu-tetrazine in Tumor (LS174T tumor model [3]; [5]): 0.86 ± 0.39 % ID/gram
^177Lu-tetrazine in Tumor (LS174T tumor model [3]; 4 days pretargeting with CC49-23a, listed as 177Lu-tetrazine): 0.86±0.39 % ID/gram
tumor-to-blood ratio (T/B) (LS174T tumor model [3]; ^177Lu-tetrazine administered 4 days after the mAb CC49-23a): 21.3±4.0
tumor-to-blood ratio (T/B) (LS174T tumor model [3]; ^177Lu-tetrazine, mice pre-treated with CC49-23a 24 h before injection of the tetrazine): 3.1±1.0

From patent US9463256B2, “Pretargeting kit, method and agents used therein” (KONINKLIJKE PHILIPS N.V., priority 2010, dated 2016)
